{
  "source": "paper PMC8212709",
  "about": "(Clinical and Translational Science, 2021)",
  "assay": "Phase I SRD/MRD safety and tolerability",
  "type": "in vivo, human (healthy subjects)",
  "key": {"[1]": {"details": "SRD single dose 17.5 mg (n = 6)"}},
  "data": [
    {"smiles": "C=CC(=O)N1CC[C@H](Oc2nc(-c3n[nH]c(=O)[nH]3)cc3ccccc23)C1", "note": "[TAK‐020]", "values": [
      {"measurement": "TEAEs", "setting": "SRD single dose 0.1 mg (n = 6)", "result": "0 n (%)"},
      {"measurement": "TEAEs Leading to DC", "setting": "SRD single dose 0.1 mg (n = 6)", "result": "0 n (%)"},
      {"measurement": "TEAEs, Mild", "setting": "SRD single dose 0.1 mg (n = 6)", "result": "0 n (%)"},
      {"measurement": "TEAEs, Moderate", "setting": "SRD single dose 0.1 mg (n = 6)", "result": "0 n (%)"},
      {"measurement": "TEAEs, Not related", "setting": "SRD single dose 0.1 mg (n = 6)", "result": "0 n (%)"},
      {"measurement": "TEAEs, Related", "setting": "SRD single dose 0.1 mg (n = 6)", "result": "0 n (%)"},
      {"measurement": "TEAEs, Severe", "setting": "SRD single dose 0.1 mg (n = 6)", "result": "0 n (%)"},
      {"measurement": "Deaths", "setting": "SRD single dose 0.5 mg (n = 6)", "result": "0 n (%)"},
      {"measurement": "Serious TEAEs", "setting": "SRD single dose 0.5 mg (n = 6)", "result": "0 n (%)"},
      {"measurement": "Serious TEAEs, Not related", "setting": "SRD single dose 0.5 mg (n = 6)", "result": "0 n (%)"},
      {"measurement": "Serious TEAEs, Related", "setting": "SRD single dose 0.5 mg (n = 6)", "result": "0 n (%)"},
      {"measurement": "TEAEs", "setting": "SRD single dose 0.5 mg (n = 6)", "result": "0 n (%)"},
      {"measurement": "TEAEs Leading to DC", "setting": "SRD single dose 0.5 mg (n = 6)", "result": "0 n (%)"},
      {"measurement": "TEAEs, Mild", "setting": "SRD single dose 0.5 mg (n = 6)", "result": "0 n (%)"},
      {"measurement": "TEAEs, Moderate", "setting": "SRD single dose 0.5 mg (n = 6)", "result": "0 n (%)"},
      {"measurement": "TEAEs, Not related", "setting": "SRD single dose 0.5 mg (n = 6)", "result": "0 n (%)"},
      {"measurement": "TEAEs, Related", "setting": "SRD single dose 0.5 mg (n = 6)", "result": "0 n (%)"},
      {"measurement": "TEAEs, Severe", "setting": "SRD single dose 0.5 mg (n = 6)", "result": "0 n (%)"},
      {"measurement": "Deaths", "setting": "SRD single dose 2.5 mg (n = 6)", "result": "0 n (%)"},
      {"measurement": "Serious TEAEs", "setting": "SRD single dose 2.5 mg (n = 6)", "result": "0 n (%)"},
      {"measurement": "Serious TEAEs, Not related", "setting": "SRD single dose 2.5 mg (n = 6)", "result": "0 n (%)"},
      {"measurement": "Serious TEAEs, Related", "setting": "SRD single dose 2.5 mg (n = 6)", "result": "0 n (%)"},
      {"measurement": "TEAEs", "setting": "SRD single dose 2.5 mg (n = 6)", "result": "1 (16.7) n (%)"},
      {"measurement": "TEAEs Leading to DC", "setting": "SRD single dose 2.5 mg (n = 6)", "result": "0 n (%)"},
      {"measurement": "TEAEs, Mild", "setting": "SRD single dose 2.5 mg (n = 6)", "result": "1 (16.7) n (%)"},
      {"measurement": "TEAEs, Moderate", "setting": "SRD single dose 2.5 mg (n = 6)", "result": "0 n (%)"},
      {"measurement": "TEAEs, Not related", "setting": "SRD single dose 2.5 mg (n = 6)", "result": "0 n (%)"},
      {"measurement": "TEAEs, Related", "setting": "SRD single dose 2.5 mg (n = 6)", "result": "1 (16.7) n (%)"},
      {"measurement": "TEAEs, Severe", "setting": "SRD single dose 2.5 mg (n = 6)", "result": "0 n (%)"},
      {"measurement": "Deaths", "setting": "SRD single dose 4.4 mg (n = 6)", "result": "0 n (%)"},
      {"measurement": "Serious TEAEs", "setting": "SRD single dose 4.4 mg (n = 6)", "result": "0 n (%)"},
      {"measurement": "Serious TEAEs, Not related", "setting": "SRD single dose 4.4 mg (n = 6)", "result": "0 n (%)"},
      {"measurement": "Serious TEAEs, Related", "setting": "SRD single dose 4.4 mg (n = 6)", "result": "0 n (%)"},
      {"measurement": "TEAEs", "setting": "SRD single dose 4.4 mg (n = 6)", "result": "0 n (%)"},
      {"measurement": "TEAEs Leading to DC", "setting": "SRD single dose 4.4 mg (n = 6)", "result": "0 n (%)"},
      {"measurement": "TEAEs, Mild", "setting": "SRD single dose 4.4 mg (n = 6)", "result": "0 n (%)"},
      {"measurement": "TEAEs, Moderate", "setting": "SRD single dose 4.4 mg (n = 6)", "result": "0 n (%)"},
      {"measurement": "TEAEs, Not related", "setting": "SRD single dose 4.4 mg (n = 6)", "result": "0 n (%)"},
      {"measurement": "TEAEs, Related", "setting": "SRD single dose 4.4 mg (n = 6)", "result": "0 n (%)"},
      {"measurement": "TEAEs, Severe", "setting": "SRD single dose 4.4 mg (n = 6)", "result": "0 n (%)"},
      {"measurement": "Deaths", "setting": "SRD single dose 8.8 mg (n = 6)", "result": "0 n (%)"},
      {"measurement": "Serious TEAEs", "setting": "SRD single dose 8.8 mg (n = 6)", "result": "0 n (%)"},
      {"measurement": "Serious TEAEs, Not related", "setting": "SRD single dose 8.8 mg (n = 6)", "result": "0 n (%)"},
      {"measurement": "Serious TEAEs, Related", "setting": "SRD single dose 8.8 mg (n = 6)", "result": "0 n (%)"},
      {"measurement": "TEAEs", "setting": "SRD single dose 8.8 mg (n = 6)", "result": "1 (16.7) n (%)"},
      {"measurement": "TEAEs Leading to DC", "setting": "SRD single dose 8.8 mg (n = 6)", "result": "0 n (%)"},
      {"measurement": "TEAEs, Mild", "setting": "SRD single dose 8.8 mg (n = 6)", "result": "1 (16.7) n (%)"},
      {"measurement": "TEAEs, Moderate", "setting": "SRD single dose 8.8 mg (n = 6)", "result": "0 n (%)"},
      {"measurement": "TEAEs, Not related", "setting": "SRD single dose 8.8 mg (n = 6)", "result": "0 n (%)"},
      {"measurement": "TEAEs, Related", "setting": "SRD single dose 8.8 mg (n = 6)", "result": "1 (16.7) n (%)"},
      {"measurement": "TEAEs, Severe", "setting": "SRD single dose 8.8 mg (n = 6)", "result": "0 n (%)"},
      {"measurement": "Deaths", "setting": "[1]", "result": "0 n (%)"},
      {"measurement": "Serious TEAEs", "setting": "[1]", "result": "0 n (%)"},
      {"measurement": "Serious TEAEs, Not related", "setting": "[1]", "result": "0 n (%)"},
      {"measurement": "Serious TEAEs, Related", "setting": "[1]", "result": "0 n (%)"},
      {"measurement": "TEAEs", "setting": "[1]", "result": "0 n (%)"},
      {"measurement": "TEAEs Leading to DC", "setting": "[1]", "result": "0 n (%)"},
      {"measurement": "TEAEs, Mild", "setting": "[1]", "result": "0 n (%)"},
      {"measurement": "TEAEs, Moderate", "setting": "[1]", "result": "0 n (%)"},
      {"measurement": "TEAEs, Not related", "setting": "[1]", "result": "0 n (%)"},
      {"measurement": "TEAEs, Related", "setting": "[1]", "result": "0 n (%)"},
      {"measurement": "TEAEs, Severe", "setting": "[1]", "result": "0 n (%)"},
      {"measurement": "Deaths", "setting": "SRD single dose 35 mg (n = 6)", "result": "0 n (%)"},
      {"measurement": "Serious TEAEs", "setting": "SRD single dose 35 mg (n = 6)", "result": "0 n (%)"},
      {"measurement": "Serious TEAEs, Not related", "setting": "SRD single dose 35 mg (n = 6)", "result": "0 n (%)"},
      {"measurement": "Serious TEAEs, Related", "setting": "SRD single dose 35 mg (n = 6)", "result": "0 n (%)"},
      {"measurement": "TEAEs", "setting": "SRD single dose 35 mg (n = 6)", "result": "0 n (%)"},
      {"measurement": "TEAEs Leading to DC", "setting": "SRD single dose 35 mg (n = 6)", "result": "0 n (%)"},
      {"measurement": "TEAEs, Mild", "setting": "SRD single dose 35 mg (n = 6)", "result": "0 n (%)"},
      {"measurement": "TEAEs, Moderate", "setting": "SRD single dose 35 mg (n = 6)", "result": "0 n (%)"},
      {"measurement": "TEAEs, Not related", "setting": "SRD single dose 35 mg (n = 6)", "result": "0 n (%)"},
      {"measurement": "TEAEs, Related", "setting": "SRD single dose 35 mg (n = 6)", "result": "0 n (%)"},
      {"measurement": "TEAEs, Severe", "setting": "SRD single dose 35 mg (n = 6)", "result": "0 n (%)"},
      {"measurement": "Deaths", "setting": "SRD single dose 70 mg (n = 6)", "result": "0 n (%)"},
      {"measurement": "Serious TEAEs", "setting": "SRD single dose 70 mg (n = 6)", "result": "0 n (%)"},
      {"measurement": "Serious TEAEs, Not related", "setting": "SRD single dose 70 mg (n = 6)", "result": "0 n (%)"},
      {"measurement": "Serious TEAEs, Related", "setting": "SRD single dose 70 mg (n = 6)", "result": "0 n (%)"},
      {"measurement": "TEAEs", "setting": "SRD single dose 70 mg (n = 6)", "result": "3 (50.0) n (%)"},
      {"measurement": "TEAEs Leading to DC", "setting": "SRD single dose 70 mg (n = 6)", "result": "0 n (%)"},
      {"measurement": "TEAEs, Mild", "setting": "SRD single dose 70 mg (n = 6)", "result": "3 (50.0) n (%)"},
      {"measurement": "TEAEs, Moderate", "setting": "SRD single dose 70 mg (n = 6)", "result": "0 n (%)"},
      {"measurement": "TEAEs, Not related", "setting": "SRD single dose 70 mg (n = 6)", "result": "2 (33.3) n (%)"},
      {"measurement": "TEAEs, Related", "setting": "SRD single dose 70 mg (n = 6)", "result": "1 (16.7) n (%)"},
      {"measurement": "TEAEs, Severe", "setting": "SRD single dose 70 mg (n = 6)", "result": "0 n (%)"},
      {"measurement": "Deaths", "setting": "SRD single dose 105 mg (n = 6)", "result": "0 n (%)"},
      {"measurement": "Serious TEAEs", "setting": "SRD single dose 105 mg (n = 6)", "result": "0 n (%)"},
      {"measurement": "Serious TEAEs, Not related", "setting": "SRD single dose 105 mg (n = 6)", "result": "0 n (%)"},
      {"measurement": "Serious TEAEs, Related", "setting": "SRD single dose 105 mg (n = 6)", "result": "0 n (%)"},
      {"measurement": "TEAEs", "setting": "SRD single dose 105 mg (n = 6)", "result": "1 (16.7) n (%)"},
      {"measurement": "TEAEs Leading to DC", "setting": "SRD single dose 105 mg (n = 6)", "result": "0 n (%)"},
      {"measurement": "TEAEs, Mild", "setting": "SRD single dose 105 mg (n = 6)", "result": "1 (16.7) n (%)"},
      {"measurement": "TEAEs, Moderate", "setting": "SRD single dose 105 mg (n = 6)", "result": "0 n (%)"},
      {"measurement": "TEAEs, Not related", "setting": "SRD single dose 105 mg (n = 6)", "result": "1 (16.7) n (%)"},
      {"measurement": "TEAEs, Related", "setting": "SRD single dose 105 mg (n = 6)", "result": "0 n (%)"},
      {"measurement": "TEAEs, Severe", "setting": "SRD single dose 105 mg (n = 6)", "result": "0 n (%)"},
      {"measurement": "percentage of subjects who experienced TEAEs", "setting": "SRD, overall TAK‐020 group", "result": 11.1, "unit": "%"}
    ]}
  ]
}
